For one series, the system named is TNF mRNA. The note with it: Colon 38 tumor bearing mice (Joseph WR, 1999); cited from earlier work.
The subject of series [1] is HS944.t human melanoma xenograft. As to conditions: B 100 mg/kg po qw; A 15 mg/kg iv; combination; days 14 and 21.
Description: Treatment started on day 14 following subcutaneous implantation of 5.0×10^6 Hs944.t human melanoma cancer cells in 50% basement membrane matrix. Starting tumor volume averaged 245 mm^3 (range=146 to 321); n=8/group. In this study, (s)—N—((S)-1-cyclohexyl-2-{(S)-2-[4-(4-fluoro-benzoyl)-thiazol-2-yl]-pyrrolidin-1-yl}-2-oxo-ethyl)-2-methylamino-propionamide was administered orally (po) at 100 mg/kg, qw, 5,6-dimethylxanthenone-4-acetic acid was administered intravenously (iv) at 15 mg/kg, or (S)—N—((S)-1-cyclohexyl-2-{(S)-2-[4-(4-fluoro-benzoyl)-thiazol-2-yl]-pyrrolidin-1-yl}-2-oxo-ethyl)-2-methylamino-propionamide and 5,6-dimethylxanthenone-4-acetic acid were administered in combination on days 14 and 21 post implantation, Vehicle control for (S)—N—((S)-1-cyclohexyl-2-{(S)-2-[4-(4-fluoro-benzoyl)-thiazol-2-yl]-pyrrolidin-1-yl}-2-oxo-ethyl)-2-methylamino-propionamide is 30% 0.1N HCl and 70% 100 mM sodium acetate buffer, pH 4.63, Vehicle control for 5,6-dimethylxanthenone-4-acetic acid is 10% 1× Tris-HCl and 90% 1×PBS, Statistical analysis performed on tumor volumes from day 14-27 post implantation using a repeated measures MANOVA test.
Series [2] has as its system MDA-MB-231 human breast cancer orthotopic xenograft. Put plainly: Single agent anti-tumor activity, MDA-MB-231 human breast cancer orthotopic xenograft (Example 1). Type of series: in vivo, athymic nude mice. As to conditions: day 71 post implantation; Compound B 150 mg/kg po qw days 50, 57, 64; Compound A 20 mg/kg iv days 50, 54, 58; p<0.05 compared to vehicle controls. As for the experimental part: Treatment started on day 50 following orthotopic implantation of 7.5×10^6 MDA-MB-231 human breast cancer cells into the mammary fat pad. Starting tumor volume averaged 160 mm^3 (range=76 to 286); n=8/group. […] The vehicle for […] is 10% Tris-HCl buffer and 90% 1×PBS, Statistical analysis performed on delta tumor volumes on day 71 post implantation using a One-way ANOVA followed by a post hoc Tukey test.
Background: In xenograft studies the graft and the host belong to different species.

For another series, the system named is mouse TNF. The series is described as follows: Mouse TNF in MDA-MB-231 breast xenograft tissue after treatment. The note with it: tumors collected 6 hrs after final dose; n=4, no statistical analysis. The class given is in vivo. The source says:
(§1) Due to the small sample size (n=4), statistical analysis was not performed.

The next series relates to human TNF. Put plainly: Human TNF in MDA-MB-231 tumor lysates after treatment. The class given is in vivo. The note with it: tumors collected 6 hrs after final dose; n=4, no statistical analysis.
Description: as §1

With `Cc1ccc2c(=O)c3cccc(CC(=O)O)c3oc2c1C` [Compound A, 5,6-dimethylxanthenone-4-acetic acid], the “TNF mRNA in tumor, spleen, and liver” value with TNF mRNA was “increase TNF mRNA”. Moreover, in series [1], the “surviving animals at study termination” value was 7/8. In series [2], the “single agent anti-tumor activity (delta tumor volumes vs vehicle controls)” value is “demonstrated single agent anti-tumor activity”. Moreover, in the series with mouse TNF, the “mouse TNF in xenograft tissue” value is listed as “increase in mouse TNF”.

As for `CN[C@@H](C)C(=O)N[C@H](C(=O)N1CCC[C@H]1c1nc(C(=O)c2ccc(F)cc2)cs1)C1CCCCC1` [Compound B, (S)—N—((S)-1-Cyclohexyl-2-{(S)-2-[4-(4-fluoro-benzoyl)-thiazol-2-yl]-pyrrolidin-1-yl}-2-oxo-ethyl)-2-methylamino-propionamide], in the series with human TNF, the “human TNF in MDA-MB-231 tumor lysates” value is recorded as “increase in human TNF”. For the same compound, in series [2], the “single agent anti-tumor activity (delta tumor volumes vs vehicle controls)” value was “demonstrated single agent anti-tumor activity”.

The values are drawn from US20140024687A1, “Combinations of Vascular Disrupting Agents with Inhibitor of Apoptosis Proteins Antagonists” (priority 2009, published 2014).
